The values that follow come from patent publication US20140004122A1, “METHODS FOR TREATING OR PREVENTING CHOLESTEROL RELATED DISORDERS” (AMGEN INC., priority 2011, published 2014).

For this experiment, the system named is hypercholesterolemic subjects with a 10 year Framingham risk score of 10% or less. Briefly: 12 week monotherapy dose-ranging study (Example 24). The format is in vivo, human. How it is done:
Ezetimibe was not blinded. The end-of-study visit and the last estimation of lipids was at week 12 for subjects on Q4W IP schedule or on ezetimibe and week 14 for subjects on Q2W IP schedule.
Males and females, ≧18 to ≦75 years of age, were eligible for this study. Fasting LDL-C was ≧100 mg/dL (2.6 mmol/L) and <190 mg/dL (4.9 mmol/L) and fasting triglycerides ≦400 mg/dL (4.5 mmol/L) by central laboratory at screening.
The primary endpoint was the percent change from baseline in LDL-C at week 12. Secondary endpoints included percent changes in apolipoprotein B (ApoB), lipoprotein (a) (Lp(a)), and in the ratio of total cholesterol to high-density lipoprotein (HDL)-C. Tolerability and safety were also evaluated.

For the compound `O=C1[C@H](CC[C@H](O)c2ccc(F)cc2)[C@@H](c2ccc(O)cc2)N1c1ccc(F)cc1` [Ezetimibe, ezetimibe, reference compound], the “percent change from baseline in LDL-C” value (week 12, final data, ezetimibe QD PO) stood at 14%. In addition, the “Least squares mean percent change from baseline (%) in LDL-C” value (week 12, Ezetimibe QD (N = 45)) is reported as −14.26%.
